Where a name gives a salt, the structure may show the parent alone. Read-outs that look alike come from different tables or passages of the source.
Legend:
[1] = test system: SARS-CoV-2 (USA_WA1/2020); test: microbe, parasite or virus in culture; format: cell-based; conditions: for EC50: read-out: CPE EC50
Vero E6 cells = Vero E6 cells without virus; for CC50: read-out: Cytotox CC50
[2] = SARS-CoV-2 CPE assay, Vero E6 cells
[3] = SARS-CoV-2 CPE assay, Vero E6 cells, confirmed anti-SARS-CoV-2 compounds
[4] = SARS-CoV-2 CPE assay, Vero E6 cells, efficacy
[5] = […], DMSO 0%, no-virus control 100%, hit confirmation

Compound | CPE % Efficacy [1, 2] [%] | EC50 [1, 2] [µM] | % Cytotox (Vero E6 cells; cytotoxicity counter-assay) [%] | CC50 (Vero E6 cells; cytotoxicity counter-assay) [µM] | EC50 [1, 3] [µM] | CPE % Efficacy [1, 4] [%] | CPE % Efficacy [1, 5] [%] | EC50 [1] [µM] | % Cytotox (Vero E6 cells; 72 h) [%]
COc1cc2c(Nc3ccc(NC(=O)c4ccccc4)cc3)ncnc2cc1OCCCN1CCOCC1 [ZM-447439] | 49.6 | 14.1 | 38.3 | 12.6 | – | – | – | – | –
Cl.Cl.Clc1ccccc1CNCC1CCC(CNCc2ccccc2Cl)CC1 (stereo not shown) [AY 9944 dihydrochloride] | – | – | 48.2 | 12.6 | 3.16 | 41.0 | – | – | –
O=C1NC(=O)/C(=C/c2cccc(C(F)(F)F)c2)S1 [SMI-4a] | 43.9 | 12.6 | 29.5 | – | – | – | – | – | –
Cn1cc(-c2ccc(-c3cncc(Cl)c3N3CCC4(CCNC4=O)CC3)cc2)cn1 [CCT-251545] | 65.2 | 14.1 | 0.0 | – | – | – | – | – | –
COc1ccccc1OCCNCC(O)COc1cccc2[nH]c3ccccc3c12.O=C(O)C(O)C(O)C(=O)O (stereo not shown) [Carvedilol tartrate] | – | – | 12.7 | 11.2 | 11.2 | 101.1 | – | – | –
Cl.Oc1ccc2c3c1O[C@H]1c4[nH]c5ccc(N=C=S)cc5c4C[C@@]4(O)[C@@H](C2)N(CC2CC2)CC[C@]314 [Naltrindole isothiocyanate hydrochloride, reference compound] | – | – | – | – | – | – | 114.7 | 10 | <30
OC(CNc1ccccc1)Cn1c2ccc(Br)cc2c2cc(Br)ccc21 (stereo not shown) [P7C3] | – | – | 54.5 | 11.2 | 3.98 | 65.2 | – | – | –
CN1CCN(C(=O)c2ccc(Nc3nccc(-c4cccs4)n3)cc2Cl)CC1 | – | – | 55.6 | 10 | 11.2 | 71.5 | – | – | –
O=C(NCc1ccccc1)[C@H](Cc1ccccc1)NC(=O)[C@H]1O[C@@H]1C(=O)NCCc1ccc(O)cc1 [CAA-0225, reference compound] | – | – | – | – | – | – | 99.3 | 0.2 | <30
O=C(N[C@@H](c1ccccc1)[C@@H]1CCCCN1)c1cccc(C(F)(F)F)c1Cl [SSR-504734] | 31.7 | 14.1 | 15.7 | 7.94 | – | – | – | – | –
Cl.Fc1ccc2c(CCNCc3cccc(OCC(F)(F)C(F)F)c3)c[nH]c2c1 [Lu AE58054 hydrochloride, reference compound] | – | – | – | – | – | – | 97.2 | 10 | <30
COc1cc2c3cc1Oc1c(OC)c(OC)cc4c1[C@@H](Cc1ccc(O)c(c1)Oc1ccc(cc1)C[C@@H]3N(C)CC2)N(C)CC4 [Berbamine dihydrochloride] | – | – | 50.1 | 11.2 | 2.82 | 79.0 | – | – | –
CC(C)c1cnn2c(NCc3ccccc3)cc(NCCCCCCN)nc12 [BS-181] | – | – | 32.0 | – | 10 | 83.4 | – | – | –
C/C(=N\NC(=S)N1CCC1)c1ccccn1 [NSC-319726] | – | – | 52.8 | 0.35 | 1.12 | 58.3 | – | – | –
O[C@@H]1[C@@H](O)[C@@H](O)CO[C@H]1O [alpha-L-Arabinopyranose, reference compound] | – | – | – | – | – | – | 104.0 | 2.4 | <30
Cc1cc(C)c(CNC(=O)c2cc(-c3ccc(N4CCN(C)CC4)nc3)cc3c2c(C)cn3C(C)C)c(=O)[nH]1 [GSK-503?EZH2 inhibitor] | 111.9 | 12.6 | 0.0 | – | – | – | – | – | –
CC(C)(C)c1ccc(C(=O)Nc2cc(Cl)c(Br)cc2C(=O)O)cc1 [NCGC00386831] | – | – | 78.8 | 10 | 11.2 | 32.0 | – | – | –
C[C@@H]1O[C@@H](O[C@H]2[C@H](OC(=O)[C@]34CCC(C)(C)C[C@H]3C3=CCC5[C@@]6(C)CC[C@H](O[C@@H]7O[C@H](CO[C@@H]8OC[C@H](O)[C@H](O)[C@H]8O)[C@@H](O)[C@H](O)[C@H]7O)C(C)(C)C6CC[C@@]5(C)[C@]3(C)C[C@H]4O)OC[C@@H](O)[C@@H]2O)[C@H](O)[C@H](O[C@@H]2OC[C@](O)(CO)[C@H]2O)[C@H]1O[C@@H]1OC[C@H](O)[C@H](O[C@@H]2OC[C@@H](O)[C@H](O)[C@H]2O)[C@H]1O (stereo partly shown) [NCGC00385743] | – | – | 67.2 | 2.14 | 0.95 | 59.8 | – | – | –

Compound | CPE % Efficacy [1, 2] [%] | EC50 [1, 2] [µM] | % Cytotox (Vero E6 cells; cytotoxicity counter-assay) [%] | CC50 (Vero E6 cells; cytotoxicity counter-assay) [µM] | EC50 [1, 3] [µM] | CPE % Efficacy [1, 4] [%] | CPE % Efficacy [1, 5] [%] | EC50 [1] [µM] | % Cytotox (Vero E6 cells; 72 h) [%]
COc1ccc2c(c1)CN(C(=O)CCN1CCC(Cc3ccccc3)CC1)CCS2 [JTV519 Hemifumarate, reference compound] | – | – | – | – | – | – | 85.7 | 5.5 | <30
CO/C1=C\C(C)=C\[C@@H](C)[C@@H](O)[C@@H](C)C/C(C)=C/C=C/[C@H](OC)[C@@H]([C@@H](C)[C@@H](O)[C@H](C)[C@@]2(O)C[C@@H](O)[C@H](C)[C@@H](C(C)C)O2)OC1=O [Bafilomycin A1 from Streptomyces griseus] | – | – | 58.6 | 0.1 | 0.0113 | 69.3 | – | – | –
COc1cc(N2CCN(C)CC2)ccc1Nc1ncc2c(n1)N(C)c1ccccc1C(=O)N2 [XMD8-87] | 88.0 | 11.2 | 32.0 | – | – | – | – | – | –
CC(C)(O)CNc1ncc(-c2ccnc(Nc3ccncc3)n2)c(CC2CC2)n1 [VPS34 Inhibitor 1, reference compound] | – | – | – | – | – | – | 98.3 | 1.4 | <30
Nc1nc2c(c(N3CC[C@@H](N)C3)n1)CCCc1ccccc1-2 [A 943931] | – | – | 34.8 | 12.6 | 11.2 | 104.3 | – | – | –
CCC(C)CNCC(=O)N1CCc2sccc2C1COc1cccc(C)c1 (stereo not shown) [RU-SKI 43] | 72.7 | 14.1 | 21.3 | – | – | – | – | – | –
C=C1Cc2c(Cl)cc3[nH]c4c5c3c2[C@@]2(O)[C@@H]1C[C@@H]2C(C)(C)O[C@H]5C1CC[C@@]2(O)[C@@]35O[C@@H]3[C@H]3OC(C)(C)[C@H]3O[C@H]5CC[C@]2(C)[C@@]41C (stereo partly shown) [NCGC00380694] | – | – | 19.8 | 4.74 | 2.99 | 50.6 | – | – | –
CCCCOC(=O)c1ccnc2cc(C(OCCN3CCCCC3)c3ccccc3C)sc12 (stereo not shown) [NCGC00481621] | – | – | 35.5 | 12.6 | 10 | 88.9 | – | – | –
COc1ccc(S(=O)(=O)N(CCO)c2ccccc2CN(C)C/C=C/c2ccc(Cl)cc2)cc1 [KN-93] | – | – | 34.4 | 11.2 | 11.2 | 69.0 | – | – | –
COc1ccccc1N1CCN(CC[C@@](C)(C(=O)C2CCCCC2)c2ccccc2)CC1 [(R)-(-)-LY 426965 dihydrochloride, reference compound] | – | – | – | – | – | – | 110.7 | 10 | <30
Cc1nc(Nc2cnn(C3CCNCC3)c2)nc2c1N(C)C(=O)c1cc3ccccc3cc1N2C [HTH-01-015] | – | – | 40.5 | 12.6 | 11.2 | 95.2 | – | – | –
C[C@@H]1CN(CC(=O)N2CC(C)(C)c3ncc(Cc4ccc(F)cc4)cc32)[C@@H](CN2CCOC[C@H]2C)CN1 [AT-IAP] | 56.2 | – | 0.0 | – | – | – | – | – | –
CCN(CC)CCCS(=O)(=O)N[C@H](CCc1ccccc1)c1nc(Cc2ccc(Br)cc2)no1 [CpdD hydrochloride, reference compound] | – | – | – | – | – | – | 96.9 | 10 | <30
O=C(/C=C/c1ccc(Cl)cc1)N1CCC2(CC1)CN(Cc1ccc(Cl)c(Cl)c1)C(=O)O2 [GSK-682753A] | 67.7 | 11.2 | 38.6 | 12.6 | – | – | – | – | –
COc1cc2nc(N3CCC(N4CCCCC4)CC3)nc(NC3CCCCCC3)c2cc1OC.Cl.Cl [C 021 dihydrochloride] | – | – | 108.9 | 7.08 | 3.55 | 79.7 | – | – | –
O=c1[nH]c2ccccc2n1C1CCN(Cc2ccc(-c3nc4cc5nc[nH]c5cc4nc3-c3ccccc3)cc2)CC1 [Akt-I-1,2] | 91.3 | 11.2 | 34.2 | 12.6 | – | – | – | – | –
(-)-Indolactam V | – | – | 20.4 | 1.24 | 1.56 | 74.4 | – | – | –

From article PMC7942396, “Drug Repurposing Screen for Compounds Inhibiting the Cytopathic Effect of SARS-CoV-2” (Frontiers in Pharmacology, 2021)
